The conditions of data set [1]: Liquid; for mass density: 298.15 K, 101.33 kPa.
Data set [2] is described as follows: refractive index (Na D-line) (dimensionless). Conditions: 298.15 K; 101.33 kPa; Liquid; Standard Abbe refractometry.

Numbers after ± are expanded uncertainties.

Results on six molecules are retold here after the NIST ThermoML archive (doi:10.1016/j.fluid.2008.07.018).

In general, mass density refers to mass per unit of volume. One may read the vapor or sublimation pressure as the equilibrium pressure above the liquid or solid. For orientation: refractive index means the speed of light in vacuum divided by its phase velocity in the sample.

On to `Nc1ccccc1` [aniline], for which the mass density in data set [1] came to 1017.6 ± 3 kg/m3. The “vapor or sublimation pressure” value in data set [1] (455.25 K) was 95.5 ± 4 kPa. Moreover, in data set [2], the refractive index is reported as 1.5836 ± 0.0007.
Regarding `CC(=O)c1ccccc1` [acetophenone], the mass density in data set [1] is 1023.8 ± 3 kg/m3. Further, in data set [1] (472.55 K), the “vapor or sublimation pressure” value was 95.5 ± 4 kPa. Also, the refractive index in data set [2] came out at 1.5342 ± 0.0007.
For the molecule `CN(C)C=O` [dimethylformamide], in data set [1], the mass density was determined as 943.9 ± 1.6 kg/m3. The “vapor or sublimation pressure” value in data set [1] (424.35 K) came to 95.5 ± 3.3 kPa. Moreover, in data set [2], the refractive index turned out to be 1.4219 ± 0.0007.
For the molecule `Clc1ccccc1` [chlorobenzene], in data set [1], the mass density is 1106.3 ± 3.3 kg/m3. Besides, in data set [1] (402.85 K), the “vapor or sublimation pressure” value is given as 95.5 ± 4 kPa. Also, in data set [2], the refractive index is on record as 1.5218 ± 0.0007.
Take `CC(=O)N(C)C` [N,N-dimethylethanamide]: the mass density in data set [1] amounted to 936.3 ± 2.7 kg/m3. Besides, in data set [2], the refractive index was determined as 1.4357 ± 0.0007.
For the molecule `Brc1ccccc1` [bromobenzene], in data set [1], the mass density is reported as 1488.1 ± 4.8 kg/m3. Besides, the “vapor or sublimation pressure” value in data set [1] (427.05 K) is listed as 95.5 ± 4 kPa. Moreover, in data set [2], the refractive index came to 1.5571 ± 0.0007.
